# In patent US9433580B2 (priority 2011, dated 2016):
# System: Pseudomonas aeruginosa
# Assay: Burn wound infection model (mouse superficial skin model, thermal injury), log reduction of Pseudomonas aeruginosa
# Type: in vivo, Swiss albino mice
# Conditions: orally 25 mg/kg body weight, day 6
# Procedure: Swiss albino mice were put into six groups and their backs were shaven. Thermal injury was induced in the shaven area by applying a heated brass rod on the back of the animals for 15 seconds to 20 seconds. For establishment of a topical infection, an inoculum containing approximately 2×10^5 bacteria (Pseudomonas aeruginosa) was injected subcutaneously (100 μL) on the sites of the burns. One hour post infection, the mice were treated using 100 mg of cream formulations of different drug concentrations. In case of all the cream formulations, 100 mg cream was applied topically twice daily for 5 days. One of the groups of mice was given Levofloxacin orally at 25 mg/kg body weight as a reference standard.
structure (smiles),measurement,value
C[C@H]1COc2c(N3CCN(C)CC3)c(F)cc3c(=O)c(C(=O)O)cn1c23 [Levofloxacin],Log reduction of microbial count,5.53 log10
